Test results reported in patent US11261196B2, “Salt serving as AKT inhibitor and crystal thereof” (HARBIN ZHENBAO PHARMACEUTICAL CO., LTD., priority 2017, dated 2022).

Assay: Stability test of the crystal form (accelerated conditions, HPLC related substances)
Type: physicochemical
Description: […] The sample was analyzed after 10 days, 1 month and 2 months.
1.2 Preparation of Diluent and Mobile Phase
Diluent: acetonitrile:water (1:1) was used as diluent
For example: 100 mL of pure water and 100 mL of pure acetonitrile were mixed in a glass bottle, followed by degassing with ultrasound for 10 minutes, then cooled down to room temperature.
Mobile phase A: 0.1% phosphoric acid aqueous solution
For example: 2.0 mL phosphoric acid was added into 2000 mL water, followed by ultrasound treatment for 10 minutes, the solution was mixed well and cooled down to room temperature as mobile phase A.
Mobile phase B: acetonitrile
Acetonitrile was used as mobile phase B.
1.3 Preparation of the Reference Solution (0.25 mg/mL Calculated by the Free Base)
The sample of the 0th day was used as reference sample, 16 mL of diluent was added thereto, followed by ultrasound treatment for 5 minutes, and the solution was mixed well. Then the solution was further subjected to 1-fold dilution and marked as STD-1 and STD-2, respectively.
1.4 Preparation of Sample Solution for Testing Sensitivity
Reference solution STD-1 (the sample of the 0th day) was subjected to 2000-fold dilution, noted as LOQ.
1.5 Preparation of the Sample Solution (0.25 mg/mL Calculated by the Freebase)
The sample was taken out and restored to room temperature and 16 mL diluent was added for dissolution. The solution was further subjected to 1-fold dilution to be used as sample solution to detect the content of related substances.

Impurity content, RRT 0.95 (40° C./75%RH, 1M): 0.05% | Impurity content, RRT 0.98 (40° C./75%RH, 1M): 0.10% | Impurity content, RRT 0.99 (40° C./75%RH, 1M): 1.36% | Impurity content, RRT 1.02 (40° C./75%RH, 1M): 0.22% | Impurity content, RRT 1.04 (40° C./75%RH, 1M): 0.05% | Impurity content, RRT 1.06 (40° C./75%RH, 1M): 0.05% | Impurity content, RRT 1.21 (40° C./75%RH, 1M): 1.50% | Impurity content, RRT 1.26 (40° C./75%RH, 1M): 0.07% | TRS (total impurity content) (40° C./75%RH, 1M): 3.38% | Impurity content, RRT 0.95 (40° C./75%RH, 2M): 0.04% | Impurity content, RRT 0.98 (40° C./75%RH, 2M): 0.10% | Impurity content, RRT 0.99 (40° C./75%RH, 2M): 1.31% | Impurity content, RRT 1.02 (40° C./75%RH, 2M): 0.20% | Impurity content, RRT 1.04 (40° C./75%RH, 2M): 0.04% | Impurity content, RRT 1.06 (40° C./75%RH, 2M): 0.09% | Impurity content, RRT 1.21 (40° C./75%RH, 2M): 1.44% | Impurity content, RRT 1.26 (40° C./75%RH, 2M): 0.06% | Impurity content, RRT 1.43 (40° C./75%RH, 2M): 0.09% | TRS (total impurity content) (40° C./75%RH, 2M): 3.37% | Impurity content, RRT 0.98 (40° C./75%RH, 10D): 0.10% | Impurity content, RRT 0.99 (40° C./75%RH, 10D): 1.40% | Impurity content, RRT 1.02 (40° C./75%RH, 10D): 0.24% | Impurity content, RRT 1.04 (40° C./75%RH, 10D): 0.04% | Impurity content, RRT 1.21 (40° C./75%RH, 10D): 1.50% | Impurity content, RRT 1.26 (40° C./75%RH, 10D): 0.06% | TRS (total impurity content) (40° C./75%RH, 10D): 3.35% | Impurity content, RRT 0.95 (60° C./75%RH, 1M): 0.05% | Impurity content, RRT 0.98 (60° C./75%RH, 1M): 0.10% | Impurity content, RRT 0.99 (60° C./75%RH, 1M): 1.27% | Impurity content, RRT 1.02 (60° C./75%RH, 1M): 0.19% | Impurity content, RRT 1.04 (60° C./75%RH, 1M): 0.08% | Impurity content, RRT 1.06 (60° C./75%RH, 1M): 0.34% | Impurity content, RRT 1.21 (60° C./75%RH, 1M): 1.44% | Impurity content, RRT 1.26 (60° C./75%RH, 1M): 0.10% | TRS (total impurity content) (60° C./75%RH, 1M): 3.57% | Impurity content, RRT 0.95 (60° C./75%RH, 2M): 0.04% | Impurity content, RRT 0.98 (60° C./75%RH, 2M): 0.10% | Impurity content, RRT 0.99 (60° C./75%RH, 2M): 1.22% | Impurity content, RRT 1.02 (60° C./75%RH, 2M): 0.24% | Impurity content, RRT 1.04 (60° C./75%RH, 2M): 0.08% | Impurity content, RRT 1.06 (60° C./75%RH, 2M): 0.45% | Impurity content, RRT 1.21 (60° C./75%RH, 2M): 1.43% | Impurity content, RRT 1.26 (60° C./75%RH, 2M): 0.10% | Impurity content, RRT 1.33 (60° C./75%RH, 2M): 0.06% | Impurity content, RRT 1.36 (60° C./75%RH, 2M): 0.08% | Impurity content, RRT 1.43 (60° C./75%RH, 2M): 0.05% | TRS (total impurity content) (60° C./75%RH, 2M): 3.85% | Impurity content, RRT 0.98 (60° C./75%RH, 10D): 0.10% | Impurity content, RRT 0.99 (60° C./75%RH, 10D): 1.36% | Impurity content, RRT 1.02 (60° C./75%RH, 10D): 0.24% | Impurity content, RRT 1.04 (60° C./75%RH, 10D): 0.07% | Impurity content, RRT 1.06 (60° C./75%RH, 10D): 0.15% | Impurity content, RRT 1.21 (60° C./75%RH, 10D): 1.46%
SMILES: Cc1cnn2c1-c1cc(C(=O)N[C@H](CN)Cc3cccc(F)c3)sc1CCC2.O=C(O)/C=C\C(=O)O
